Reference: ChEMBL document CHEMBL1125524, “Adenosine A1 antagonists. 2. Structure-activity relationships on diuretic activities and protective effects against acute renal failure” (J Med Chem, 1992)

Experiments:
[1] = tested on: Rattus norvegicus; experiment: Urea nitrogen concentration measured after intraperitoneal administration of 1 mg/kg of compound to rats(vehicle 139.8+/-7.8); assay type: functional
[2] = tested on: Rattus norvegicus; experiment: Ratio of sodium ion/potassium ion concentration in treated rats to that in control rats, at a peroral dose of 1.6 mg/Kg; assay type: functional
[3] = tested on: Rattus norvegicus; experiment: Oral diuretic activity was measured after oral administration of 0.4 mg/kg to rats(control volume is 1.15+/-0.17); assay type: functional, Urine
[4] = tested on: Rattus norvegicus; experiment: Serum creatinine concentration measured after intraperitoneal administration of 1 mg/kg of compound to rats(vehicle 4.74+/-0.31); assay type: functional
[5] = tested on: Rattus norvegicus; experiment: Ratio of sodium ion/potassium ion concentration in treated rats to that in control rats, at a peroral dose of 0.1 mg/Kg; assay type: functional
[6] = molecular target: Adenosine A2 receptor (Rattus norvegicus, UniProt P29276+P30543)
[7] = molecular target: T1, Adenosine receptor A1 (Cavia porcellus, UniProt P47745)
T1 sequence (P47745 whole entry): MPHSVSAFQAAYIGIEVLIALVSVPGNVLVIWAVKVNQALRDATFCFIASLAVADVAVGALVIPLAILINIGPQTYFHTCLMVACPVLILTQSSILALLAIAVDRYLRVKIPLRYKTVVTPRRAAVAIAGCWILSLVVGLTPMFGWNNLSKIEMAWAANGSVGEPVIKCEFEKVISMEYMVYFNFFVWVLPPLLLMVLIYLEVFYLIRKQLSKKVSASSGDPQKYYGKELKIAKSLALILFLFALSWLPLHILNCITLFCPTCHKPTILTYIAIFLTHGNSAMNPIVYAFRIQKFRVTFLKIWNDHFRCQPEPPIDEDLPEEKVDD
Description: Binding affinity against adenosine A1 receptor in guinea pig forebrain membranes using N6-[3H]cyclohexyladenosine as radioligand

[8] = tested on: Rattus norvegicus; experiment: Serum creatinine concentration measured after intraperitoneal administration of 0.1 mg/kg of compound to rats(vehicle 6.90+/-0.20); assay type: functional
[9] = tested on: Rattus norvegicus; experiment: Percent inhibition of Urea nitrogen by the compound given as ratio of UN value in treated to vehicle treated ones after intraperitoneal administration of 1 mg/kg of compound to rats(vehicle 139.8+/-7.8); assay type: functional; details: ip
[10] = tested on: Rattus norvegicus; experiment: Ratio of urinary excretion value (urinary volume) in treated rats to that in control rats, at a peroral dose of 0.4 mg/Kg; assay type: functional, Urine
[11] = tested on: Rattus norvegicus; experiment: Ratio of sodium ion/potassium ion concentration in treated rats to that in control rats, at a peroral dose of 0.4 mg/Kg; assay type: functional
[12] = tested on: Rattus norvegicus; experiment: Ratio of urinary excretion value (urinary volume) in treated rats to that in control rats, at a peroral dose of 0.1 mg/Kg; assay type: functional, Urine
[13] = tested on: Rattus norvegicus; experiment: Ratio of urinary excretion value (Na+ concentration) in treated rats to that in control rats, at a peroral dose of 1.6 mg/Kg; assay type: functional, Urine
[14] = tested on: Rattus norvegicus; experiment: Percent inhibition of serum creatinine by the compound given as ratio of Cr value in treated to vehicle treated ones after intraperitoneal administration of 0.1 mg/kg of compound to rats(vehicle 6.90+/-0.20); assay type: functional; details: ip
[15] = tested on: Rattus norvegicus; experiment: Oral diuretic activity was measured after oral administration of 0.1 mg/kg to rats(control volume is 1.05+/-0.11); assay type: functional, Urine
[16] = tested on: Rattus norvegicus; experiment: Oral diuretic activity was measured after oral administration of 1.6 mg/kg to rats(control volume is 0.86+/-0.09); assay type: functional, Urine
[17] = tested on: Rattus norvegicus; experiment: Urea nitrogen concentration measured after intraperitoneal administration of 0.1 mg/kg of compound to rats(vehicle 171.3+/-6.4); assay type: functional
[18] = tested on: Rattus norvegicus; experiment: Ratio of urinary excretion value (Na+ concentration) in treated rats to that in control rats, at a peroral dose of 0.4 mg/Kg; assay type: functional, Urine
[19] = tested on: Rattus norvegicus; experiment: Ratio of urinary excretion value (urinary volume) in treated rats to that in control rats, at a peroral dose of 1.6 mg/Kg; assay type: functional, Urine
[20] = tested on: Rattus norvegicus; experiment: Effect on urinary excretion potassium and sodium after oral administration of 0.1 mg/kg to rats(potassium and sodium excretion in control rat is 0.180+/-0.017); assay type: functional, Urine
[21] = tested on: Rattus norvegicus; experiment: Ratio of urinary excretion value (Na+ concentration) in treated rats to that in control rats, at a peroral dose of 0.1 mg/Kg; assay type: functional, Urine
[22] = tested on: Rattus norvegicus; experiment: Effect on urinary excretion potassium and sodium after oral administration of 0.4 mg/kg to rats(potassium and sodium excretion in control rat is 0.191+/-0.020); assay type: functional, Urine
[23] = tested on: Rattus norvegicus; experiment: Effect on urinary excretion potassium and sodium after oral administration of 1.6 mg/kg to rats(potassium and sodium excretion in control rat is 0.174+/-0.013); assay type: functional, Urine
[24] = tested on: Rattus norvegicus; experiment: Percent inhibition of serum creatinine by the compound given as ratio of Cr value in treated to vehicle treated ones after intraperitoneal administration of 1 mg/kg of compound to rats(vehicle 4.74+/-0.31); assay type: functional; details: ip
[25] = tested on: Rattus norvegicus; experiment: Percent inhibition of Urea nitrogen by the compound given as ratio of UN value in treated to vehicle treated ones after intraperitoneal administration of 0.1 mg/kg of compound to rats(vehicle 171.3+/-6.4); assay type: functional; details: ip

Which UN [1] does the source give for `CCn1c(=O)c2nc(C3CCCC3)[nH]c2n(CC)c1=O` here?
Its UN is 65.5 mg/dL.

What about the “Na+/K+” value [2] of the same compound?
The value was 1.56.

And the Urine volume [3]?
Its Urine volume is 1.89 ml 6hr-1 100g-1.

What about the Cr [4] of the same compound?
The Cr was 2.28 mg/dL.

What about the “Na+/K+” value [5] of the same compound?
The value was 1.

What about the Ki [6] of the same compound?
The Ki was 440 nM.

And the Ki [7]?
The Ki was 19 nM.

And the Cr [8]?
Its Cr is 5.48 mg/dL.

And the inhibition in vivo at 1 mg/kg [9]?
The inhibition in vivo at 1 mg/kg was 53%.

And the T/C [10]?
The T/C was 1.64.

What about the “Na+/K+” value [11] of the same compound?
Its value is 1.54.

And the T/C [12]?
The T/C was 1.03.

And the T/C [13]?
The T/C was 2.09.

And the inhibition in vivo at 0.1 mg/kg [14]?
The inhibition in vivo at 0.1 mg/kg was 21%.

And the Urine volume [15]?
Its Urine volume is 1.09 ml 6hr-1 100g-1.

And the Urine volume [16]?
The Urine volume was 2.09 ml 6hr-1 100g-1.

What about the UN [17] of the same compound?
The UN was 143.9 mg/dL.

And the T/C [18]?
The T/C was 1.79.

And the T/C [19]?
The T/C was 2.43.

And the Na [20]?
Its Na is 0.206 m equiv 6hr-1 100g-1.

And the T/C [21]?
The T/C was 1.15.

And the Na [22]?
Its Na is 0.342 m equiv 6hr-1 100g-1.

What about the Na [23] of the same compound?
The Na was 0.24 m equiv 6hr-1 100g-1.

And the inhibition in vivo at 1 mg/kg [24]?
Its inhibition in vivo at 1 mg/kg is 52%.

What about the inhibition in vivo at 0.1 mg/kg [25] of the same compound?
Its inhibition in vivo at 0.1 mg/kg is 16%.
